Assay results from patent publication US9493421B2, “Acridinedione derivatives for treating pigmentation disorders and ageing of the skin” (PIERRE FABRE DERMO-COSMETIQUE, priority 2011, dated 2016).

Key:
[1] = Test to study anti-oxidizing capability using chemiluminescence (Photochem Analytic Jena); assay type: biochemical; conditions: quantity of sample needed for activity equivalent to 1 μg Trolox, superoxide anion trapping
Protocol: This test is used to determine the anti-oxidizing capability of the molecules. It is a method which generates free radicals via photochemical signal. The intensity of oxidation is 1000 times higher than obtained under normal conditions.
Detection is performed using chemiluminescence. This allows evaluation of water-soluble and liposoluble antioxidant molecules or extracts
The results are expressed in equivalent quantity of vitamin C or Trolox (6-hydroxy-2,5,7,8-tetramethylchroman-2-carboxylic acid) respectively. Sensitivity is in the order of one nanomole.
The anti-oxidizing activity studied in this test represents the capability of specifically trapping superoxide anions by chemiluminescence.
The quantified results are expressed in Trolox equivalent (standard) or in “μg of product per 1 μg of Trolox”. This means that a quantity x of sample is needed to obtain activity equivalent to the activity detected with 1 μg of standard. It is the antioxidizing power in relation to a reference; this avoids having to take into account the concentrations tested.
The superoxide radical: O2^∘^− is generated by photochemical reaction: L+hv(UV)+O2→L*O2→L^∘^++O2^∘^− • L*: luminol in the excited state L^∘+: luminol radical Signal Detection
Part of the superoxide anions are inhibited by the antioxidants. The remaining free radicals are quantified by chemiluminescence. L^∘^++O2^∘^−→N2+AP*^2−→AP^2−+hv (luminescence)
AP*^2−: aminophthalate in the excited state

[2] = tested on: B16-F10 cells; experiment: Assay of melanin in B16-F10 cells (colorimetric, α-MSH stimulated); assay type: cell-based, murine; conditions: 0.1 μM α-MSH
Protocol: It is a test to measure the synthesis of melanin by colorimetric assay on a murine melanoma cell line: line B16-F10. With this test it is possible to evaluate the depigmenting or propigmenting property of active ingredients.
The B16-F10 cells were seeded in 96-well plates in DMEM medium supplemented with FCS (foetal calf serum), and incubated 24 h at 37° C., 5% CO2. The cells were stimulated with 0.1 μM α-MSH (to stimulate melanin synthesis, the observed stimulation being about 150%) and treated 72 h with the active ingredients to be assayed. Each concentration of active ingredient was assayed at least in triplicate. Total melanin and intracellular melanin dissolved in lysis buffer were assayed by absorbance read-off at 405 nm. The total proteins were assayed in the lysate and the results expressed in mg melanin/mg proteins. Percentage activity was calculated as follows: […]
A negative value indicates inhibition of the melanin synthesis and translates depigmenting activity of the compound, whereas a positive value indicates induced melanin synthesis and translates a propigmenting property of the molecule.
• B16-F10 cell lines between P10 and P20 (murine melanocytes) (ATCC, CRL-6475); • reagents: DMEM without Phenol Red (GIBCOBRL, 118800-028), 200 mM glutamax-I supplement (GIBCOBRL, 35050-038), glucose (SIGMA, G7021), PBS (GIBCOBRL, 14190-094), foetal calf serum (Invitrogen, 10270-098), trypsin-EDTA (GIBCOBRL, 25300-054), NaOH (Sigma, S8045-500G), DMSO (Sigma, 471267-11), Nle, Phe-Melanocyte Stimulating Hormone (Sigma, M-8764), melanin (Sigma, M-0418), BCA-COPPER (SIGMA, B9643 and C2284), BSA (SIGMA, P0914) B) Test to Study Anti-Oxidizing Capability Using Chemiluminescence (Photochem Analytic Jena) Principle

[3] = Log P (octanol/water partition coefficient); assay type: physicochemical
Description: Log P, also called Log Kow, is a measurement of the differential solubility of chemical compounds in two solvents (octanol/water partition coefficient).
Log P is equal to the logarithm of the ratio of the concentrations of the examined substance in octanol and in water. Log P=Log(Coct/Cwater). With this value it is possible to assess the hydrophilic or hydrophobic (lipophilic) nature of a molecule. If Log P is positive and very high, this means that the molecule under consideration is much more soluble in octanol than in water, which reflects its lipophilic nature, and conversely. A value of Log P=0 means that the molecule is distributed equally between the two phases and Coct=Cwater (C. Hansch, J. F. Quinlan, G. L. Lawrence, Linear free energy relationship between partition coefficients and the aqueous solubility of organic liquids, J. Org. Chem., 33 (1968), 347-350; C. Hansch, A. Leo, Exploring QSAR—Fundamentals and Applications in Chemistry and Biology, American Chemical Society, Washington, 1995; J. Sangster, Octanol—Water Partition Coefficients: Fundamentals and Physical Chemistry, Wiley, Chichester, 1997; W. Jorgensen, E. Duffy, Advanced Drug Delivery Reviews, (54), 2002, 355-366).

[4] = Mus musculus, B16-F10, 72 h, negative = inhibition, positive = stimulation, read-out: Melanin synthesis on B16

Row | logP [3] | melting point | Compound | also measured
1 | – | – | CN1C2=C(C(=O)CC(C)(C)C2)C(c2ccc(O)c(O)c2)C2=C1CC(C)(C)CC2=O [Example 4, 9-(3,4-dihydroxyphenyl)-3,3,6,6,10-pentamethyl-3,4,6,7,9,10-hexahydroacridine-1,8(2H,5H)-dione] | μg sample per 1 μg of Trolox [1]: 0.017 μg sample per 1 μg of Trolox
2 | – | – | CN1C2=C(C(=O)CC(c3ccccc3)C2)C(c2ccc(O)c(O)c2)C2=C1CC(c1ccccc1)CC2=O (stereo not shown) [Example 5, 9-(3,4-dihydroxyphenyl)-10-methyl-3,6-diphenyl-3,4,6,7,9,10-hexahydroacridine-1,8(2H,5H)-dione] | μg sample per 1 μg of Trolox [1]: 0.05 μg sample per 1 μg of Trolox
3 | – | – | CCCCCCCCCCN1C2=C(C(=O)CC(c3ccccc3)C2)C(c2ccc(O)c(O)c2)C2=C1CC(c1ccccc1)CC2=O (stereo not shown) [Example 6, 10-decyl-9-(3,4-dihydroxyphenyl)-3,6-diphenyl-3,4,6,7,9,10-hexahydroacridine-1,8(2H,5H)-dione] | μg sample per 1 μg of Trolox [1]: 0.04 μg sample per 1 μg of Trolox
4 | 1.49 | 309.8 °C | COc1cc(C2C3=C(CC(C)(C)CC3=O)NC3=C2C(=O)CC(C)(C)C3)ccc1O [Example 10, 9-(4-hydroxy-3-methoxyphenyl)-3,3,6,6-tetramethyl-3,4,6,7,9,10-hexahydroacridine-1,8(2H,5H)-dione] | activation at 100 µM [2, 4]: 29%
5 | 1.72 | – | COc1cc(C2C3=C(CC(C)(C)CC3=O)N(C)C3=C2C(=O)CC(C)(C)C3)ccc1O [Example 11, 9-(4-hydroxy-3-methoxyphenyl)-3,3,6,6,10-pentamethyl-3,4,6,7,9,10-hexahydroacridine-1,8(2H,5H)-dione] | activation at 100 µM [2, 4]: 47%
6 | 2.06 | – | CCN1C2=C(C(=O)CC(C)(C)C2)C(c2ccc(O)c(OC)c2)C2=C1CC(C)(C)CC2=O [Example 12, 10-ethyl-9-(4-hydroxy-3-methoxyphenyl)-3,3,6,6-tetramethyl-3,4,6,7,9,10-hexahydroacridine-1,8(2H,5H)-dione] | activation at 50 µM [2, 4]: 72%
7 | 2.55 | 259.5 °C | CCCN1C2=C(C(=O)CC(C)(C)C2)C(c2ccc(O)c(OC)c2)C2=C1CC(C)(C)CC2=O [Example 13, 9-(4-hydroxy-3-methoxyphenyl)-3,3,6,6-tetramethyl-10-propyl-3,4,6,7,9,10-hexahydroacridine-1,8(2H,5H)-dione] | activation at 50 µM [2, 4]: 43%
8 | 2.97 | – | CCCCN1C2=C(C(=O)CC(C)(C)C2)C(c2ccc(O)c(OC)c2)C2=C1CC(C)(C)CC2=O [Example 14, 10-butyl-9-(4-hydroxy-3-methoxyphenyl)-3,3,6,6-tetramethyl-3,4,6,7,9,10-hexahydroacridine-1,8(2H,5H)-dione] | activation at 20 µM [2, 4]: 45%
9 | 3.38 | 194.5 °C | CCCCCN1C2=C(C(=O)CC(C)(C)C2)C(c2ccc(O)c(OC)c2)C2=C1CC(C)(C)CC2=O [Example 15, 9-(4-hydroxy-3-methoxyphenyl)-3,3,6,6-tetramethyl-10-pentyl-3,4,6,7,9,10-hexahydroacridine-1,8(2H,5H)-dione] | activation at 50 µM [2, 4]: 42%
10 | 3.8 | 177.7 °C | CCCCCCN1C2=C(C(=O)CC(C)(C)C2)C(c2ccc(O)c(OC)c2)C2=C1CC(C)(C)CC2=O [Example 16, 10-hexyl-9-(4-hydroxy-3-methoxyphenyl)-3,3,6,6-tetramethyl-3,4,6,7,9,10-hexahydroacridine-1,8(2H,5H)-dione] | –
11 | 4.22 | 154.8 °C | CCCCCCCN1C2=C(C(=O)CC(C)(C)C2)C(c2ccc(O)c(OC)c2)C2=C1CC(C)(C)CC2=O [Example 17, 10-heptyl-9-(4-hydroxy-3-methoxyphenyl)-3,3,6,6-tetramethyl-3,4,6,7,9,10-hexahydroacridine-1,8(2H,5H)-dione] | activation at 20 µM [2, 4]: -68%
12 | 4.63 | 154.2 °C | CCCCCCCCN1C2=C(C(=O)CC(C)(C)C2)C(c2ccc(O)c(OC)c2)C2=C1CC(C)(C)CC2=O [Example 18, 9-(4-hydroxy-3-methoxyphenyl)-3,3,6,6-tetramethyl-10-octyl-3,4,6,7,9,10-hexahydroacridine-1,8(2H,5H)-dione] | activation at 5 µM [2, 4]: -59%
13 | 5.05 | 127 °C | CCCCCCCCCN1C2=C(C(=O)CC(C)(C)C2)C(c2ccc(O)c(OC)c2)C2=C1CC(C)(C)CC2=O [Example 19, 9-(4-hydroxy-3-methoxyphenyl)-3,3,6,6-tetramethyl-10-nonyl-3,4,6,7,9,10-hexahydroacridine-1,8(2H,5H)-dione] | activation at 5 µM [2, 4]: -42%
14 | 5.89 | 118.9 °C | CCCCCCCCCCCN1C2=C(C(=O)CC(C)(C)C2)C(c2ccc(O)c(OC)c2)C2=C1CC(C)(C)CC2=O [Example 20, 9-(4-hydroxy-3-methoxyphenyl)-3,3,6,6-tetramethyl-10-undecyl-3,4,6,7,9,10-hexahydroacridine-1,8(2H,5H)-dione] | activation at 5 µM [2, 4]: -57%
15 | 3.46 | – | COc1cc(C2C3=C(CC(C)(C)CC3=O)N(Cc3ccccc3)C3=C2C(=O)CC(C)(C)C3)ccc1O [Example 21, 10-benzyl-9-(4-hydroxy-3-methoxyphenyl)-3,3,6,6-tetramethyl-3,4,6,7,9,10-hexahydroacridine-1,8(2H,5H)-dione] | activation at 100 µM [2, 4]: 48%
16 | 3.74 | – | COc1cc(C2C3=C(CC(C)(C)CC3=O)N(CCc3ccccc3)C3=C2C(=O)CC(C)(C)C3)ccc1O [Example 22, 9-(4-hydroxy-3-methoxyphenyl)-3,3,6,6-tetramethyl-10-phenethyl-3,4,6,7,9,10-hexahydroacridine-1,8(2H,5H)-dione] | –
17 | 4.15 | – | COc1cc(C2C3=C(CC(C)(C)CC3=O)N(CCCc3ccccc3)C3=C2C(=O)CC(C)(C)C3)ccc1O [Example 23, 9-(4-hydroxy-3-methoxyphenyl)-3,3,6,6-tetramethyl-10-(3-phenylpropyl)-3,4,6,7,9,10-hexahydroacridine-1,8(2H,5H)-dione] | activation at 10 µM ([2]; Mus musculus, B16-F10, at 10 μM, 72 h, negative = inhibition, positive = stimulation, read-out: Melanin synthesis on B16): -37%
18 | 5.32 | – | COc1cc(C2C3=C(CC(C)(C)CC3=O)N(CC(c3ccccc3)c3ccccc3)C3=C2C(=O)CC(C)(C)C3)ccc1O [Example 24, 10-(2,2-diphenylethyl)-9-(4-hydroxy-3-methoxyphenyl)-3,3,6,6-tetramethyl-3,4,6,7,9,10-hexahydroacridine-1,8(2H,5H)-dione] | activation at 5 µM [2, 4]: -37%
19 | – | – | Nle, Phe-Melanocyte Stimulating Hormone [α-MSH, reference compound] | Stimulation of melanin synthesis ([2]; B16-F10 cells): about 150%
